Data as given in patent publication US20170274004A1, “TREATMENT OF CANCER USING TLR9 AGONIST WITH CHECKPOINT INHIBITORS” (IDERA PHARMACEUTICALS, INC., priority 2014, published 2017).

Legend:
Assay type in all cases: in vivo, BALB/c mice
A20 cells = test: Intratumoral vs subcutaneous TLR9 agonist in A20 lymphoma model (Example 2)
Method: BALB/c mice (n=10) were implanted s.c with 3×10^6 A20 cells on the right flank. Treatment was initiated on day 8 with either intratumoral (i.t.) or subcutaneous (s.c.) injection of 2.5 mg/kg IMO-4. IMO-4 was given on days 8, 10, 12 and 14. Samples from placebo (PBS) control and IMO-4 treated tumor-bearing mice were collected on day 21 after tumor implantation. […] Intratumoral IMO-4 also modulated tumor checkpoint expression compared to subcutaneous administration thereby sensitizing the tumor microenvironment for combination with one or more checkpoint inhibitors (data not shown).

[1] = system: murine colon carcinoma CT26 cells; test: TLR9 agonist and anti-PD-1 mAb combination, CT26 treated and distant tumors (Example 7); conditions: FIG. 11
Method: BALB/c mice (n=8 per group) were implanted s.c with 1×10^7 murine colon carcinoma CT26 cells in right flank (Tumor 1) and left flank (Tumor 2). Treatment was initiated on day 7 when tumor volume on reaches 200 to 300 mm^3. 2.5 mg/kg IMO-4 (50 μg in 100 μl PBS) was i.t injected at right tumor nodules and anti-PD-1 mAb (10 mg/kg, 200 μg/mouse) was administered by i.p injection either alone or co-administered on days 7, 8, 11 and 12 for total 4 times. Tumor nodules were collected at day 14.

CT26 cells [2] = test: TLR9 agonist and anti-IDO1 inhibitor combination, CT26 treated tumors and systemic lung metastases (Example 9); conditions: compared with PBS group (nodules infiltrating most of the lung tissues); FIG. 16 legend
Method: BALB/c mice were implanted s.c with 1×10^7 CT26 cells on right flank. The mice were than i.v injected with 3×10^6 CT26 cells to establish lung metastases. Treatment was initiated on day 4. 2.5 mg/kg IMO-4 was administered intratumorally into solid tumors on the right flank and 75 mg/kg anti-IDO1 inhibitor was administered orally (p.o.). IMO-4 and anti-IDO1 inhibitor were given either alone or co-administered on days 4, 5, 7, and 8. Anti-IDO1 was administered twice. Samples from control, IMO-4, anti-IDO1 inhibitor or IMO-4 and anti-IDO1 inhibitor treated tumor-bearing mice were collected. FIGS. 14 through 17 show the effects of IMO-4 and anti-IDO1 inhibitor on directly treated tumors and systemic lung metastasis.

A20 lymphoma = test: Intratumoral TLR9 agonist in A20 lymphoma model, treated and distant tumors (Example 3)
CT26 cells [3] = test: Intratumoral TLR9 agonist in CT26 colon carcinoma model, treated and distant tumors (Example 4)
Method: (§1) BALB/c mice (n=9) were implanted s.c with 2×10^6 CT26 cells on the right and left flank. Treatment was initiated on day 7 with intratumoral injection in the left flank with 2.5 mg/kg IMO-4. IMO-4 was given on days 7, 9, 11, 13 and 15. Samples from placebo (PBS) control and IMO-4 treated tumor-bearing mice were collected on day 27 after tumor implantation. […] Intratumoral IMO-4 also modulated tumor checkpoint expression thereby sensitizing the tumor microenvironment for combination with one or more checkpoint inhibitors (data not shown).

B16 cells = test: Intratumoral TLR9 agonist in B16 melanoma model, treated and distant tumors (Example 5)
Method: as §1, with “s.c with 1×10^6 B16 cells on” for “s.c with 2×10^6 CT26 cells on”, “flank with of 2.5 mg/kg” for “flank with 2.5 mg/kg”, “on day 22 after tumor” for “on day 27 after tumor”

**Q.** What does the source list for “5-TCGAACG1TTCG1-X-G1CTTG1CAAG1CT-5′ (chain 1 TCGAACGTTCG; chain 2 TCGAACGTTCG; two copies joined 3'-3' by glycerol linker; G1 modified; modified_base (3)..(3) 2′-deoxy-7-deazaguanosine; modified_base (7)..(7) 2′-deoxy-7-deazaguanosine; modified_base (11)..(11) 2′-deoxy-7-deazaguanosine) [IMO-4]”?
**A.** antitumor activity (A20 cells; intratumoral 2.5 mg/kg on days 8, 10, 12, 14, FIG. 3): potent antitumor activity; CD3+ TIL infiltration (A20 cells; intratumoral 2.5 mg/kg, samples day 21, FIG. 3): induced; tumor checkpoint expression (A20 cells; intratumoral compared to subcutaneous administration, data not shown): modulated; CD3+ cells in tumor tissue ([1]; compared with few CD3+ cells in PBS (vehicle) mice): a large number of CD+3 cells; T lymphocyte infiltration into tumor tissues ([1]; tumor nodules collected day 14): increases; tumor nodules in lung tissues (CT26 cells [2]): tumor nodules are smaller than that of the PBS group; antitumor activity, treated and distant tumor nodules (A20 lymphoma; intratumoral in left flank, 2.5 mg/kg on days 8, 10, 12, 14, FIG. 4): potent antitumor activity in both treated and distant tumor nodules; tumor checkpoint expression (A20 lymphoma; intratumoral, data not shown): modulated; antitumor activity, treated and distant tumor nodules (CT26 cells [3]; intratumoral in left flank, 2.5 mg/kg on days 7, 9, 11, 13, 15, FIG. 5): potent antitumor activity in both treated and distant tumor nodules; tumor checkpoint expression (CT26 cells [3]; intratumoral, data not shown): modulated; antitumor activity, treated and distant tumor nodules (B16 cells; intratumoral in left flank, 2.5 mg/kg on days 7, 9, 11, 13, 15, FIG. 6): potent antitumor activity in both treated and distant tumor nodules; tumor checkpoint expression (B16 cells; intratumoral, data not shown): modulated
